# Measurements reported in patent US6796312B2, “Process and apparatus for the removal of toxic components of tobacco smoke and the standardization of the health hazards related to those components” (priority 2001, dated 2004).
# Where “and” joins values, the source holds several entries; their conditions need not be identical. Equal entries are not always repeated.
# Assays:
# [1] = test system: Ehrlich carcinoma, Li210 mouse leukemia and other cancer cells; settings: in vivo and in vitro; cited from earlier work
# [2] = target: T1, pig heart D-amino acid oxidase (Sus scrofa, UniProt P00371); settings: 2.7×10^−3 Molar (160 ppm); cited from earlier work
# T1 construct: host or cells: pig heart (so in the source)
# T1 sequence (P00371 whole entry): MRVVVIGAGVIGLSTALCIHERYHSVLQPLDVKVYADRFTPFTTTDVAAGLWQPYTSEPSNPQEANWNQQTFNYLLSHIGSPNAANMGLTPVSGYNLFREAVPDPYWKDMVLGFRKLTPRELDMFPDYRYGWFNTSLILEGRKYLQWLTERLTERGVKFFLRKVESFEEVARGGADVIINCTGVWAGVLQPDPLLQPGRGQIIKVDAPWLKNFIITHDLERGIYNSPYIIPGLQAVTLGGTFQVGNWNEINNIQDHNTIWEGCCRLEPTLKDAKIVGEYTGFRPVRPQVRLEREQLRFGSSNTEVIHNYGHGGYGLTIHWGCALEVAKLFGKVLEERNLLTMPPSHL
# [3] = target: squash ascorbic acid oxidase (Cucurbita pepo var. melopepo, UniProt P37064); settings: cited from earlier work
# Sequence of squash ascorbic acid oxidase (P37064 whole entry): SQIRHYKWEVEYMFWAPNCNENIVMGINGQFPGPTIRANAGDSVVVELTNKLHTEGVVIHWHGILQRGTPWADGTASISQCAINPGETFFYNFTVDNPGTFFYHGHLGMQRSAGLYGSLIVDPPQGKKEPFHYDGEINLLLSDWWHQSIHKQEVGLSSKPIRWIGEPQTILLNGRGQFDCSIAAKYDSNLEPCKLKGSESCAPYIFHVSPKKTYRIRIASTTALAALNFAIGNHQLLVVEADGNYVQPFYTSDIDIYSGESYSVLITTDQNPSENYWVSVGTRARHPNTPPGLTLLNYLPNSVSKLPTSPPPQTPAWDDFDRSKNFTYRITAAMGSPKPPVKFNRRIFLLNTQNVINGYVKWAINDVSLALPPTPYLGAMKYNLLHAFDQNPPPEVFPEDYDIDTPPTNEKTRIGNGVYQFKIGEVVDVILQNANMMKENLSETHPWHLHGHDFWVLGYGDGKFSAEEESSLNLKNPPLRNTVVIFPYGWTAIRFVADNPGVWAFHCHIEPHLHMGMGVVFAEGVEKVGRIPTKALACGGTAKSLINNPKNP
# [4] = Non-enzymatic oxidation of NADH2 by aged NDGA solutions
# Experimental: Oxidation of reduced nicotinamide-adenine dinucleotide by nordihydroguaiaretic acid in the presence of PO4 buffer at pH 7.0 occurs at a slow rate, (See Burk and Woods (1963) and references to findings of […]. and […]. reported therein). Although this oxidation was very small under the conditions of experiment, an interaction correction factor was determined and applied to all reduced nicotinamide-adenine dinucleotide-nordihydroguaiaretic acid-mycloperoxidase assay reactions. [table] The effect of aging nordihydroguaiaretic acid solutions (0.5 mg. nordihydroguaiaretic acid dissolved in 0.02 ml. of ethyl alcohol plus 0.98 ml. of 0.15 Molar Na2HPO4.KH2PO4 buffer, pH 7.0) on the oxidation of reduced nicotinamide-adenine dinucleotide by nordihydroguaiaretic acid is shown above in Table VI. At 35° C., the latter undergoes a slow visible auto-oxidation change, from a near colorless solution (the reduced form of the orthoquinone) immediately after preparation, to a yellow brown colloidal suspension (probably the quinone form) with the yellow-brown material tending to precipitate slowly during the course of several hours. The sedimentation of nordihydroguaiaretic acid and its accumulation and adherence upon the inner glass surface of test tubes was avoided by shaking the solution periodically. The slow oxidation of reduced nicotinamide-adenine dinucleotide by nordihydroguaiaretic acid during the first forty-five (45) minutes can be more than twice the rate of subsequent time periods. Once the lowest rate of oxidation of reduced nicotinamide-adenine dinucleotide is achieved by the aging of nordihydroguaiaretic acid solutions, it remains constant for at least eight (8) hours.
# [5] = test system: succinic oxidase and reduced nicotinamide-adenine dinucleotide oxidase; test: Respiratory chain of mouse heart homogenates; assay type: biochemical; settings: under certain conditions, Eichel unpublished
# [6] = target: T2, yeast alcohol dehydrogenase (Saccharomyces cerevisiae, UniProt P00330); settings: 2.7×10^−4 Molar (80 ppm); cited from earlier work
# T2 sequence (P00330 1-348): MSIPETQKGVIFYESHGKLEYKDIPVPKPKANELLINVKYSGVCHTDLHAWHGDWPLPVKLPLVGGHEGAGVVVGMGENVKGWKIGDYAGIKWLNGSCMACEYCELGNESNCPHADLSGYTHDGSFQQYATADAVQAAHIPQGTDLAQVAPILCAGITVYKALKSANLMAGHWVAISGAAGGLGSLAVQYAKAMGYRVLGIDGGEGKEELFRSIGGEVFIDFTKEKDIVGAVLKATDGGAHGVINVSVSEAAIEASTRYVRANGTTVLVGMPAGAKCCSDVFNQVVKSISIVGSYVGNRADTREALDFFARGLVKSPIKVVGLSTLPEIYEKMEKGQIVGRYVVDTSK
# caries = settings: hamsters in vivo; cited from earlier work
# turnip peroxidase = settings: 2.7×10^−4 Molar (80 ppm); cited from earlier work
# rat liver cyclophorase = settings: 2.7×10^−3 Molar (160 ppm); listed as nordihydroguaiaretic acid; cited from earlier work
structure (smiles),measurement,setting,value
"CC(Cc1ccc(O)c(O)c1)C(C)Cc1ccc(O)c(O)c1 (stereo not drawn) [NDGA, beta, gamma-dimethyl-alpha, ortho-bis (3,4 dihydroxiphenyl) butane]",inhibition of the same metabolic activities in cancer cells,[1],similarly inhibited
same,inhibition of pig heart D-amino acid oxidase,[2],99%
same,inhibition of squash ascorbic acid oxidase,[3],100%
same,Rate of Oxidation of NADH2,"[4]; NDGA solution aged 10 minutes at 35° C., pH 7.0, Experiment 3",.017 Optical Density (O.D.) Units per 100 Seconds
same,Rate of Oxidation of NADH2,"[4]; NDGA solution aged 15 minutes, Experiment 2",.020 Optical Density (O.D.) Units per 100 Seconds
same,Rate of Oxidation of NADH2,"[4]; NDGA solution aged 45 minutes, Experiment 1",.027 Optical Density (O.D.) Units per 100 Seconds
same,Rate of Oxidation of NADH2,"[4]; NDGA solution aged 60 minutes, Experiment 3",.013 Optical Density (O.D.) Units per 100 Seconds
same,Rate of Oxidation of NADH2,"[4]; NDGA solution aged 110 minutes, Experiment 1",.011 Optical Density (O.D.) Units per 100 Seconds
same,Rate of Oxidation of NADH2,"[4]; NDGA solution aged 120 minutes, Experiment 3",.011 Optical Density (O.D.) Units per 100 Seconds
same,Rate of Oxidation of NADH2,"[4]; NDGA solution aged 140 minutes, Experiment 2",.014 Optical Density (O.D.) Units per 100 Seconds
same,Rate of Oxidation of NADH2,"[4]; NDGA solution aged 175 minutes, Experiment 1",.012 Optical Density (O.D.) Units per 100 Seconds
same,Rate of Oxidation of NADH2,"[4]; NDGA solution aged 180 minutes, Experiment 3",.012 Optical Density (O.D.) Units per 100 Seconds
same,Rate of Oxidation of NADH2,"[4]; NDGA solution aged 215 minutes, Experiment 2",.014 Optical Density (O.D.) Units per 100 Seconds
same,Rate of Oxidation of NADH2,"[4]; NDGA solution aged 240 minutes, Experiment 3",.012 Optical Density (O.D.) Units per 100 Seconds
same,Rate of Oxidation of NADH2,"[4]; NDGA solution aged 270 minutes, Experiment 1",.011 Optical Density (O.D.) Units per 100 Seconds
same,Rate of Oxidation of NADH2,"[4]; NDGA solution aged 285 minutes, Experiment 2",.014 Optical Density (O.D.) Units per 100 Seconds
same,Rate of Oxidation of NADH2,"[4]; NDGA solution aged 323 minutes, Experiment 1",.011 Optical Density (O.D.) Units per 100 Seconds
same,Rate of Oxidation of NADH2,"[4]; NDGA solution aged 380 minutes, Experiment 3",.011 Optical Density (O.D.) Units per 100 Seconds
same,Rate of Oxidation of NADH2,"[4]; NDGA solution aged 440 minutes, Experiment 3",.011 Optical Density (O.D.) Units per 100 Seconds
same,Rate of Oxidation of NADH2,"[4]; NDGA solution aged 485 minutes, Experiment 3",.010 Optical Density (O.D.) Units per 100 Seconds
same,"inhibition of the respiratory chain (succinic oxidase, reduced nicotinamide-adenine dinucleotide oxidase)",[5],effective inhibitor
same,inhibition of yeast alcohol dehydrogenase,[6],71%
same,anti-caries effect,caries,effective experimental anti-caries agent
same,inhibition of turnip peroxidase,turnip peroxidase,71%
same,inhibition of rat liver cyclophorase,rat liver cyclophorase,93% and 70%
